Tested on: HSPC-pDCs
Assay: RNA-sequencing of HSPC-pDCs generated with or without ascorbic acid
Format: cell-based, human
Description: HSPCs were thawed and 1×10^5 cells were seeded in DC medium with or without supplementation of ascorbic acid (AA). Following 16 days of differentiation with or without AA in the medium, pDCs were isolated by immunomagnetic depletion of non-pDCs, and HSPCs-pDCs were then primed for 72 hours with IFN-β/γ. Following priming, HSPC-pDCs were stored in RNAprotect Cell Reagent (Qiagen) at −80° C. until total RNA was extracted using the RNeasy Plus Micro Kit (Qiagen), which efficiently eliminates genomic DNA without the need for DNase treatment. The total RNA was send to BGI Europe for RNA-seq. Here, a non-stranded & polyA-selected mRNA library was prepared from the total RNA and subjected to PE100 sequencing using the BGISEQ platform. The samples generated on average about 4.84 Gb bases per sample. Low quality reads were filtered and the remaining reads were mapped to the genome with an average mapping ratio with the reference genome at 92.74%, the average gene mapping ratio at 79.90%. In total, 18,412 genes were identified. Gene expression was calculated based on the reads, differentially expressed genes and gene ontology analyses were analyzed on BGI's software analysis platform Dr. Tom. HSPCs were thawed and 1×10^5 cells were seeded in DC medium with or without supplementation of ascorbic acid (AA). Following 16 days of differentiation with or without AA in the medium, pDCs were isolated by immunomagnetic depletion of non-pDCs, and HSPCs-pDCs were then primed for 72 hours with IFN-β/γ. Following priming, HSPC-pDCs were stored in RNAprotect Cell Reagent (Qiagen) at −80 degrees until total RNA was extracted using the RNeasy Plus Micro Kit (Qiagen), which efficiently eliminates genomic DNA without the need for DNase treatment. The total RNA was send to BGI Europe for RNA-seq. Here, a non-stranded & polyA-selected mRNA library was prepared from the total RNA and subjected to PE100 sequencing using the BGISEQ platform. The samples generated on average about 4.84 Gb bases per sample. Low quality reads were filtered and the remaining reads were mapped to the genome with an average mapping ratio with the reference genome at 92.74%, the average gene mapping ratio at 79.90%. In total, 18,412 genes were identified. Gene expression was calculated based on the reads, differentially expressed genes and gene ontology analyses were analyzed on BGI's software analysis platform Dr. Tom.

[1] = condition with AA, |log 2FC|>=1 and Qvalue <=0.05

O=C1O[C@H]([C@@H](O)CO)C(O)=C1O [ascorbic acid] was tested, and the “number of downregulated genes” value [1] was 334 genes, the “number of upregulated genes” value [1] was 916 genes and the “Log2 (+AA/−AA)” value (gene ADA2, Qvalue 2.90E−08) was 0.759. The “+AA FPKM” value (gene ADA2, −AA FPKM 117.7033) was 197.7367 FPKM, the “Log2 (+AA/−AA)” value (gene ALOX5AP, Qvalue 0.002016945) was 0.793 and the “+AA FPKM” value (gene ALOX5AP, −AA FPKM 210) was 364 FPKM. The “Log2 (+AA/−AA)” value (gene ANXA2, Qvalue 9.39E−07) was 1.658, the “+AA FPKM” value (gene ANXA2, −AA FPKM 106) was 333 FPKM and the “Log2 (+AA/−AA)” value (gene APP, Qvalue 0.015253176) was 0.696. The “+AA FPKM” value (gene APP, −AA FPKM 133) was 215 FPKM, the “Log2 (+AA/−AA)” value (gene BRI3, Qvalue 0.00802755) was 0.724 and the “+AA FPKM” value (gene BRI3, −AA FPKM 216) was 358 FPKM. For the same compound, the “Log2 (+AA/−AA)” value (gene C1QA, Qvalue 0.002254892) was 1.342, the “+AA FPKM” value (gene C1QA, −AA FPKM 91) was 230 FPKM and the “Log2 (+AA/−AA)” value (gene C1QB, Qvalue 0.011037205) was 1.137. The “+AA FPKM” value (gene C1QB, −AA FPKM 147) was 323 FPKM, the “Log2 (+AA/−AA)” value (gene C1QC, Qvalue 0.002547556) was 1.551 and the “+AA FPKM” value (gene C1QC, −AA FPKM 126) was 365 FPKM. For the same compound, the “Log2 (+AA/−AA)” value (gene C1orf162, Qvalue 0.038404809) was 0.529, the “+AA FPKM” value (gene C1orf162, −AA FPKM 178) was 256 FPKM and the “Log2 (+AA/−AA)” value (gene CD68, Qvalue 3.20E−09) was 1.365. For the same compound, the “+AA FPKM” value (gene CD68, −AA FPKM 240) was 619 FPKM, the “Log2 (+AA/−AA)” value (gene CD74, Qvalue 3.24E−08) was 0.841 and the “+AA FPKM” value (gene CD74, −AA FPKM 5008) was 8923 FPKM. For the same compound, the “Log2 (+AA/−AA)” value (gene CD81, Qvalue 0.002330558) was 1.451, the “+AA FPKM” value (gene CD81, −AA FPKM 85) was 235 FPKM and the “Log2 (+AA/−AA)” value (gene CHI3L1, Qvalue 0.024834793) was 2.178. For the same compound, the “+AA FPKM” value (gene CHI3L1, −AA FPKM 108) was 496 FPKM, the “Log2 (+AA/−AA)” value (gene CTSB, Qvalue 6.81E−09) was 1.920 and the “+AA FPKM” value (gene CTSB, −AA FPKM 96) was 363 FPKM. The “Log2 (+AA/−AA)” value (gene CTSD, Qvalue 1.73E−06) was 1.460, the “+AA FPKM” value (gene CTSD, −AA FPKM 323) was 893 FPKM and the “Log2 (+AA/−AA)” value (gene CTSH, Qvalue 2.00E−04) was 1.227. For the same compound, the “+AA FPKM” value (gene CTSH, −AA FPKM 116) was 271 FPKM, the “Log2 (+AA/−AA)” value (gene CTSS, Qvalue 1.80E−04) was 0.939 and the “+AA FPKM” value (gene CTSS, −AA FPKM 126) was 242 FPKM. For the same compound, the “Log2 (+AA/−AA)” value (gene CTSZ, Qvalue 3.93E−08) was 1.002, the “+AA FPKM” value (gene CTSZ, −AA FPKM 232) was 462 FPKM and the “Log2 (+AA/−AA)” value (gene CYBB, Qvalue 0.018453508) was 0.807. The “+AA FPKM” value (gene CYBB, −AA FPKM 184) was 322 FPKM, the “Log2 (+AA/−AA)” value (gene DEFA1, Qvalue 6.38E−05) was 5.728 and the “+AA FPKM” value (gene DEFA1, −AA FPKM 20) was 1047 FPKM. The “Log2 (+AA/−AA)” value (gene DEFA3, Qvalue 0.001704486) was 4.431, the “+AA FPKM” value (gene DEFA3, −AA FPKM 27) was 593 FPKM and the “Log2 (+AA/−AA)” value (gene DEFA4, Qvalue 1.65E−08) was 4.651. The “+AA FPKM” value (gene DEFA4, −AA FPKM 39) was 975 FPKM, the “Log2 (+AA/−AA)” value (gene EVI2B, Qvalue 0.01888367) was 0.294 and the “+AA FPKM” value (gene EVI2B, −AA FPKM 193) was 236 FPKM. For the same compound, the “Log2 (+AA/−AA)” value (gene FCER1G, Qvalue 0.033270138) was 0.509, the “+AA FPKM” value (gene FCER1G, −AA FPKM 961) was 1367 FPKM and the “Log2 (+AA/−AA)” value (gene FLNA, Qvalue 0.011692048) was 0.372. The “+AA FPKM” value (gene FLNA, −AA FPKM 160.4000) was 206.4233 FPKM, the “Log2 (+AA/−AA)” value (gene FTH1, Qvalue 0.00845252) was 1.289 and the “+AA FPKM” value (gene FTH1, −AA FPKM 1395) was 3417 FPKM. The “Log2 (+AA/−AA)” value (gene GRINA, Qvalue 0.006989716) was 0.718, the “+AA FPKM” value (gene GRINA, −AA FPKM 130) was 214 FPKM and the “Log2 (+AA/−AA)” value (gene GRN, Qvalue 0.015829898) was 0.695. The “+AA FPKM” value (gene GRN, −AA FPKM 432) was 696 FPKM, the “Log2 (+AA/−AA)” value (gene HLA-DMB, Qvalue 0.022417743) was 0.717 and the “+AA FPKM” value (gene HLA-DMB, −AA FPKM 188) was 307 FPKM. For the same compound, the “Log2 (+AA/−AA)” value (gene HLA-DPA1, Qvalue 6.34E−04) was 0.763, the “+AA FPKM” value (gene HLA-DPA1, −AA FPKM 1038) was 1750 FPKM and the “Log2 (+AA/−AA)” value (gene HLA-DPB1, Qvalue 0.003235049) was 0.785. For the same compound, the “+AA FPKM” value (gene HLA-DPB1, −AA FPKM 227) was 388 FPKM, the “Log2 (+AA/−AA)” value (gene HLA-DQA1, Qvalue 0.03140587) was 1.374 and the “+AA FPKM” value (gene HLA-DQA1, −AA FPKM 161) was 414 FPKM. For the same compound, the “Log2 (+AA/−AA)” value (gene HLA-DRB1, Qvalue 1.76E−04) was 1.122, the “+AA FPKM” value (gene HLA-DRB1, −AA FPKM 1106) was 2401 FPKM and the “Log2 (+AA/−AA)” value (gene HLA-DRB3, Qvalue 0.018823029) was 1.224. For the same compound, the “+AA FPKM” value (gene HLA-DRB3, −AA FPKM 159) was 365 FPKM, the “Log2 (+AA/−AA)” value (gene IFI27, Qvalue 3.56E−04) was 4.638 and the “+AA FPKM” value (gene IFI27, −AA FPKM 15) was 377 FPKM. For the same compound, the “Log2 (+AA/−AA)” value (gene IFITM3, Qvalue 6.61E−06) was 1.496, the “+AA FPKM” value (gene IFITM3, −AA FPKM 494) was 1383 FPKM and the “Log2 (+AA/−AA)” value (gene IL2RG, Qvalue 0.001778062) was 0.785. The “+AA FPKM” value (gene IL2RG, −AA FPKM 122) was 209 FPKM, the “Log2 (+AA/−AA)” value (gene ITGB2, Qvalue 9.28E−04) was 0.599 and the “+AA FPKM” value (gene ITGB2, −AA FPKM 433) was 654 FPKM. For the same compound, the “Log2 (+AA/−AA)” value (gene LGALS3, Qvalue 5.07E−04) was 1.667, the “+AA FPKM” value (gene LGALS3, −AA FPKM 62.3833) was 199.3967 FPKM and the “Log2 (+AA/−AA)” value (gene LGALS3BP, Qvalue 5.08E−05) was 1.001. For the same compound, the “+AA FPKM” value (gene LGALS3BP, −AA FPKM 155) was 310 FPKM, the “Log2 (+AA/−AA)” value (gene MX1, Qvalue 0.026353098) was 2.341 and the “+AA FPKM” value (gene MX1, −AA FPKM 42) was 212 FPKM. The “Log2 (+AA/−AA)” value (gene NCF1, Qvalue 0.015338721) was 0.659, the “+AA FPKM” value (gene NCF1, −AA FPKM 131) was 207 FPKM and the “Log2 (+AA/−AA)” value (gene PRDX1, Qvalue 0.009710824) was 1.094. The “+AA FPKM” value (gene PRDX1, −AA FPKM 106) was 227 FPKM, the “Log2 (+AA/−AA)” value (gene PSAP, Qvalue 7.31E−04) was 0.802 and the “+AA FPKM” value (gene PSAP, −AA FPKM 600) was 1044 FPKM. For the same compound, the “Log2 (+AA/−AA)” value (gene RETN, Qvalue 0.035172121) was 0.766, the “+AA FPKM” value (gene RETN, −AA FPKM 244) was 414 FPKM and the “Log2 (+AA/−AA)” value (gene S100A11, Qvalue 0.024890893) was 0.525. For the same compound, the “+AA FPKM” value (gene S100A11, −AA FPKM 732) was 1054 FPKM, the “Log2 (+AA/−AA)” value (gene SERPING1, Qvalue 2.30E−05) was 1.387 and the “+AA FPKM” value (gene SERPING1, −AA FPKM 181) was 471 FPKM. The “Log2 (+AA/−AA)” value (gene SOD2, Qvalue 0.017321675) was 1.145, the “+AA FPKM” value (gene SOD2, −AA FPKM 129) was 301 FPKM and the “Log2 (+AA/−AA)” value (gene TYMP, Qvalue 0.016368204) was 0.679. The “+AA FPKM” value (gene TYMP, −AA FPKM 348) was 553 FPKM and the “number of TLR7 and TLR9 pathway genes statistically significantly expressed” value (of 54 selected genes, AA in media during HSPC-pDC generation) was 17 genes.

Source: patent publication US20240141294A1, “CGMP COMPLIANT PRODUCTION AND EXPANSION OF PLASMACYTOID DENDRITIC CELLS FROM HEMATOPOIETIC STEM AND PROGENITOR CELLS” (AARHUS UNIVERSITET, priority 2021, published 2024)
